The target in data set [1] is T1, Cytochrome P450 2C9 (Homo sapiens, UniProt P11712). Nature of the data set: Inhibition of recombinant human CYP2C9 expressed in HEK293 cells using 3-cyano-7-ethoxycoumarin as substrate pretreated for 30 mins followed by substrate addition measured for 60 mins by fluorescence assay. In kind it is ADME.
The species entered for data set [2] is Homo sapiens. Nature of the data set: Selectivity ratio of IC50 for recombinant human CYP1A2 expressed in HEK293 cells to IC50 for recombinant human CYP1A1 expressed in HEK293 cells. It counts as cell-based.
For data set [3], the species on record is Homo sapiens. Nature of the data set: Selectivity ratio of IC50 for recombinant human CYP1B1 expressed in HEK293 cells to IC50 for recombinant human CYP1A1 expressed in HEK293 cells. In kind it is cell-based.
In data set [4] the target is T2, Cytochrome P450 1A2 (Homo sapiens, UniProt P05177).
T2 sequence (P05177 whole entry): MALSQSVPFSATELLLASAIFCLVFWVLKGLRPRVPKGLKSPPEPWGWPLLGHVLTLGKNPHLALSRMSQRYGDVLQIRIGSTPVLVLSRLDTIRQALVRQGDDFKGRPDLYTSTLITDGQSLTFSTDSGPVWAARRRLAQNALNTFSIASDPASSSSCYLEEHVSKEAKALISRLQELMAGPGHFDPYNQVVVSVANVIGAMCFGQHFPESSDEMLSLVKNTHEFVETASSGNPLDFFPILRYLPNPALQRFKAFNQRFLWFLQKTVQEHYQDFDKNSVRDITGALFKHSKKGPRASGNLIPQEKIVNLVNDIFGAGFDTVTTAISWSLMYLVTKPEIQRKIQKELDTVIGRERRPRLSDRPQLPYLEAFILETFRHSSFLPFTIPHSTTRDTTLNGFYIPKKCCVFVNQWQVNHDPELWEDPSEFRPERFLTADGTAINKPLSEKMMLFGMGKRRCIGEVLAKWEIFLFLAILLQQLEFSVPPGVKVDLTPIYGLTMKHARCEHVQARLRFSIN
Nature of the data set: Inhibition of recombinant human CYP1A2 expressed in HEK293 cells using 3-cyano-7-ethoxycoumarin as substrate pretreated for 30 mins followed by substrate addition measured for 60 mins by fluorescence assay. In kind it is ADME.

Data set [5] has as its target T3, Cytochrome P450 2D6 (Homo sapiens, UniProt P10635). Nature of the data set: Inhibition of recombinant human CYP2D6 expressed in HEK293 cells using 7-ethoxy-methyloxy-3-cyanocoumarin as substrate pretreated for 30 mins followed by substrate addition measured for 60 mins by fluorescence assay. In kind it is ADME, cell-based.
Data set [6] concerns the target T4, Cytochrome P450 1B1 (Homo sapiens, UniProt Q16678).
T4 sequence (Q16678 whole entry): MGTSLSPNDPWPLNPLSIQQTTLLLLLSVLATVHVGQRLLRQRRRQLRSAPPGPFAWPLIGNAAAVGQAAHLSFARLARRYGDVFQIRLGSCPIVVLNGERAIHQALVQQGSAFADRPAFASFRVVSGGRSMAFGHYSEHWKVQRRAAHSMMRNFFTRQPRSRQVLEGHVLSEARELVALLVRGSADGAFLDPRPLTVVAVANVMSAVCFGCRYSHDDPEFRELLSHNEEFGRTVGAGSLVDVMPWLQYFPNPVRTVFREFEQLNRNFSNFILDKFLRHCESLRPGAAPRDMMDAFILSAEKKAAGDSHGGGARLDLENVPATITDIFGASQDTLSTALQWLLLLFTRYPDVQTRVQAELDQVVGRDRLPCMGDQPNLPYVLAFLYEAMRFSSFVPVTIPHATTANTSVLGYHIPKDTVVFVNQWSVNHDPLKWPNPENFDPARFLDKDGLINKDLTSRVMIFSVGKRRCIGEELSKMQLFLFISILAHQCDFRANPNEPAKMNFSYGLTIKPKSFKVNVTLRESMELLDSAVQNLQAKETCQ
Nature of the data set: Inhibition of recombinant human CYP1B1 expressed in HEK293 cells using 7-ethoxyresorufin as substrate pretreated for 30 mins followed by substrate addition measured for 60 mins by fluorescence assay. It counts as cell-based.

Data set [7] concerns the target T5, Cytochrome P450 2C19 (Homo sapiens, UniProt P33261). Nature of the data set: Inhibition of human CYP2C19 expressed in yeast microsomal membranes using 3-cyano-7-ethoxycoumarin as substrate measured after 10 mins by fluorescence assay. In kind it is ADME, cell membranes, Microsomal Membrane.
Data set [8] concerns the target T3, Cytochrome P450 2D6. In words: Inhibition of human CYP2D6 expressed in yeast microsomal membranes using 7-ethoxy-methyloxy-3-cyanocoumarin as substrate measured after 10 mins by fluorescence assay. It counts as ADME, cell membranes, Microsomal Membrane.
Data set [9] concerns the target T6, Cytochrome P450 1A1 (Homo sapiens, UniProt P04798).
T6 sequence (P04798 whole entry): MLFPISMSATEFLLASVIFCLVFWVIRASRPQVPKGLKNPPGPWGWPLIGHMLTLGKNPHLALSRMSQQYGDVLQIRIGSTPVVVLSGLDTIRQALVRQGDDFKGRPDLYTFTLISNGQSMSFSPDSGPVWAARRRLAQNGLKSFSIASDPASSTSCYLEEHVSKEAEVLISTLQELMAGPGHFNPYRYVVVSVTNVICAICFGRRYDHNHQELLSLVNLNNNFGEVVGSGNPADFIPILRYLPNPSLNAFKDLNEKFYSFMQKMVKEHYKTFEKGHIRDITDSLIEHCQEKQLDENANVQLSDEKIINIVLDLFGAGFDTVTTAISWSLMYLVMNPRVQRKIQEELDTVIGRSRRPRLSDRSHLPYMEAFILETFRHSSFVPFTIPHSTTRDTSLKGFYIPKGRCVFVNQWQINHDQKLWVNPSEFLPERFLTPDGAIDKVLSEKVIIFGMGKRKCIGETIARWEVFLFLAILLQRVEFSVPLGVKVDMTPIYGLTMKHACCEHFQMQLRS
Nature of the data set: Inhibition of human CYP1A1 expressed in yeast microsomal membranes using 7-ethoxyresorufin as substrate measured after 10 mins by fluorescence assay. It counts as cell membranes.

Data set [10] concerns the target T5, Cytochrome P450 2C19. In words: Inhibition of recombinant human CYP2C19 expressed in HEK293 cells using 3-cyano-7-ethoxycoumarin as substrate pretreated for 30 mins followed by substrate addition measured for 60 mins by fluorescence assay. In kind it is ADME.
Data set [11] has as its target T7, Aryl hydrocarbon receptor (Homo sapiens, UniProt P35869).
T7 sequence (P35869 whole entry): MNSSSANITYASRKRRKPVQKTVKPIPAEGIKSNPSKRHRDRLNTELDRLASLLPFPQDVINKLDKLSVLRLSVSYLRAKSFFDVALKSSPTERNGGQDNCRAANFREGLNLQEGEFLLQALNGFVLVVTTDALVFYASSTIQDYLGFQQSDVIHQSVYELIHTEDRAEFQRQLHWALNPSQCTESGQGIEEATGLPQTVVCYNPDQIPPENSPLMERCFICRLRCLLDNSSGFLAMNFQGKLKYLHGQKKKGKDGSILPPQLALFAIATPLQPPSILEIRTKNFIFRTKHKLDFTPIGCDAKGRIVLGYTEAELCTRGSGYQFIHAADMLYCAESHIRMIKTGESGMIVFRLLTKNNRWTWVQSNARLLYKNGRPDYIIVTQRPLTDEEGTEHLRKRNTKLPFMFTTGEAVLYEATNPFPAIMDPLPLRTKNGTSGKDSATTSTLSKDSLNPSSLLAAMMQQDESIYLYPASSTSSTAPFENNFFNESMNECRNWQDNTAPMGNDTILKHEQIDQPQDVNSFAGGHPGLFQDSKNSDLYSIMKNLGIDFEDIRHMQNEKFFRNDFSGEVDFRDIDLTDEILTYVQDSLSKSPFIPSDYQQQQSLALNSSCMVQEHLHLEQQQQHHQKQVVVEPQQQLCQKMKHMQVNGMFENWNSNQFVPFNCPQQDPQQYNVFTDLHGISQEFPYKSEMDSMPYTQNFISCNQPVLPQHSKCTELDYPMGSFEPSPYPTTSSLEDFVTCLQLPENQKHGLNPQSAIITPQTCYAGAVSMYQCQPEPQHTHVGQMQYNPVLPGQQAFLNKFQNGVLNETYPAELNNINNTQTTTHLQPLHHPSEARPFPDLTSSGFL
Nature of the data set: Antagonist activity at recombinant human eGFP-fused Ahr expressed in yeast cells co-expressing ARNT assessed as inhibition of benzo(a)pyrene-induced Ahr activation at 1 uM measured after 18 hrs by fluorescence assay. It counts as cell-based.

Data set [12] deals with T1, Cytochrome P450 2C9. Nature of the data set: Inhibition of human CYP2C9 expressed in yeast microsomal membranes using 3-cyano-7-ethoxycoumarin as substrate measured after 10 mins by fluorescence assay. In kind it is ADME, cell membranes, Microsomal Membrane.
In data set [13] the target is T8, Cytochrome P450 3A4 (Homo sapiens, UniProt P08684). In words: Inhibition of human CYP3A4 expressed in yeast microsomal membranes using dibenzylfluorescein as substrate measured after 10 mins by fluorescence assay. It counts as ADME, cell membranes, Microsomal Membrane.
T8 sequence (P08684 whole entry): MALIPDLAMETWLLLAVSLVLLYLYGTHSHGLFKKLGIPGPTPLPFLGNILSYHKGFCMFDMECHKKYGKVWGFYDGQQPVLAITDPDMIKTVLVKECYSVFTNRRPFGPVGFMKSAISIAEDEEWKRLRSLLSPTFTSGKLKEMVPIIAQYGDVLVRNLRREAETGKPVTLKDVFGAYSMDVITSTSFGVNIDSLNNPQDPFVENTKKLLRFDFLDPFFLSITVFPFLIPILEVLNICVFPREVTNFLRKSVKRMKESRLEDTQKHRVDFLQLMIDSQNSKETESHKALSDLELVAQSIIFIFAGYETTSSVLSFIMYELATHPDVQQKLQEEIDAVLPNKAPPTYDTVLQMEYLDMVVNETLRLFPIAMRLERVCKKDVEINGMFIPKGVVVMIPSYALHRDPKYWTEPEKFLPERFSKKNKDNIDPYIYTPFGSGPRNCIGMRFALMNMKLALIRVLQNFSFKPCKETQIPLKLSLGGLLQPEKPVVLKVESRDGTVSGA
The target of data set [14] is T4, Cytochrome P450 1B1. Nature of the data set: Inhibition of human CYP1B1 expressed in yeast microsomal membranes using 7-ethoxyresorufin as substrate measured after 10 mins by fluorescence assay. In kind it is cell membranes.
Data set [15] deals with T8, Cytochrome P450 3A4. Nature of the data set: Inhibition of recombinant human CYP3A4 expressed in HEK293 cells using dibenzylfluorescein as substrate pretreated for 30 mins followed by substrate addition measured for 60 mins by fluorescence assay. It counts as ADME.
The target in data set [16] is T2, Cytochrome P450 1A2. In words: Inhibition of human CYP1A2 expressed in yeast microsomal membranes using 3-cyano-7-ethoxycoumarin as substrate measured after 10 mins by fluorescence assay. It counts as ADME, cell membranes, Microsomal Membrane.
The target in data set [17] is T6, Cytochrome P450 1A1. In words: Inhibition of recombinant human CYP1A1 expressed in HEK293 cells using 7-ethoxyresorufin as substrate pretreated for 30 mins followed by substrate addition measured for 60 mins by fluorescence assay. In kind it is cell-based.
Data set [18] has as its target T4, Cytochrome P450 1B1. Nature of the data set: Inhibition of recombinant human CYP1B1 expressed in HEK293 cells assessed as potentiation of cisplatin-induced cytotoxicity by measuring reduction in cisplatin EC50 by MTT assay. It counts as cell-based. A general note: Tetrazolium dyes change colour on reduction, which living cells bring about.
Data set [19] addresses T6, Cytochrome P450 1A1. In words: Inhibition of recombinant human CYP1A1 expressed in HEK293 cells assessed as reduction in benzo(a)pyrene-induced toxicity by measuring increase in B[a]P EC50 at 2 times IC50 by MTT assay. In kind it is cell-based.

T5 sequence (P33261 whole entry): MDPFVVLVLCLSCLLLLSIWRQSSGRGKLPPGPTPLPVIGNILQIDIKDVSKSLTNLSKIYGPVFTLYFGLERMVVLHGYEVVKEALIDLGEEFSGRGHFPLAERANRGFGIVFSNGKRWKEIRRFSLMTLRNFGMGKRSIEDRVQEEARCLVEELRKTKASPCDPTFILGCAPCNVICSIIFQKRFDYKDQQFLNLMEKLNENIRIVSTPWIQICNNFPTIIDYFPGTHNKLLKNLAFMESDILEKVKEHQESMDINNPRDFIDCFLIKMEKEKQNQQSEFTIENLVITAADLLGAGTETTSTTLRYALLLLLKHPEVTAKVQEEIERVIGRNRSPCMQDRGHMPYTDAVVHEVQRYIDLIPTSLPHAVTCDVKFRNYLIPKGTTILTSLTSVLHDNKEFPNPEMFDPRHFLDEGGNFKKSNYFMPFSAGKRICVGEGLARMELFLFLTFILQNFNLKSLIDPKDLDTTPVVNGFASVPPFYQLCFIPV
T3 sequence (P10635 whole entry): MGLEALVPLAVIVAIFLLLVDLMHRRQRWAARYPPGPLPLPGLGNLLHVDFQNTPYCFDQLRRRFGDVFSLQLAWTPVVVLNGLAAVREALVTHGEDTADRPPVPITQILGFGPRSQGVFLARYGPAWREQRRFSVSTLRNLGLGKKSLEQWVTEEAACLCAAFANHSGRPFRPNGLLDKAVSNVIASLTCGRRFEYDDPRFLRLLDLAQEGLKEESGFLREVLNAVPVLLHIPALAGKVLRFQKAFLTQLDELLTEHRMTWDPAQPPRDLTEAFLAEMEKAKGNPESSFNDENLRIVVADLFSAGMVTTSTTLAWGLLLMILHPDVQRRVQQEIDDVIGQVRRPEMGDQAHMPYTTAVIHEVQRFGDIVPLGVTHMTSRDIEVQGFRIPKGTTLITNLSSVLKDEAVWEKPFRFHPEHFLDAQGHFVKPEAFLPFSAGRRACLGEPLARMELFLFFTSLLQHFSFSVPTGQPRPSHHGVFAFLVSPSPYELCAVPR
T1 sequence (P11712 whole entry): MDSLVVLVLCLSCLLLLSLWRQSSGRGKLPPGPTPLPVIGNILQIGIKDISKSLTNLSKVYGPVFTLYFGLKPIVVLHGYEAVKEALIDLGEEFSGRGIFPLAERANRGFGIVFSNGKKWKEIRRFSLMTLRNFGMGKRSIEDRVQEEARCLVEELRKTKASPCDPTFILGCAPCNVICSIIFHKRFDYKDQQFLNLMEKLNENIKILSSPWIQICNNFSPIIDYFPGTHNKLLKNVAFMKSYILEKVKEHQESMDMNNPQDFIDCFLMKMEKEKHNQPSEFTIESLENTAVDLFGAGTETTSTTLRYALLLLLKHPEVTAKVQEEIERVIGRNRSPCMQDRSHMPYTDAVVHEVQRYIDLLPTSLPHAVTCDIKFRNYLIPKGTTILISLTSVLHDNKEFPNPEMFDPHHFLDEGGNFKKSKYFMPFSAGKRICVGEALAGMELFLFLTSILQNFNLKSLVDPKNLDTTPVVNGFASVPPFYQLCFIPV

The IC50 is the point on the concentration scale where inhibition reaches its midpoint. As for `CCOc1cc(/C=C/C(=O)c2ccncc2)cc(OC)c1OCC`, the concentration for half-maximal inhibition (IC50) was above 10000 nM at Cytochrome P450 2C9 [1]; 820 nM on Cytochrome P450 1A2 [4]; above 10000 nM on Cytochrome P450 2D6 [5]; 3070 nM at Cytochrome P450 1B1 [6]; above 20000 nM against Cytochrome P450 2C19 [7]; 15000 nM on Cytochrome P450 2D6 [8]. In addition, the IC50 is 65 nM on Cytochrome P450 1A1 [9]; above 10000 nM at Cytochrome P450 2C19 [10]; above 20000 nM on Cytochrome P450 2C9 [12]; above 20000 nM on Cytochrome P450 3A4 [13]; 2920 nM against Cytochrome P450 1B1 [14]; above 10000 nM at Cytochrome P450 3A4 [15]. In addition, the 50% inhibitory concentration (IC50) at Cytochrome P450 1A2 [16] was determined as 780 nM; at Cytochrome P450 1A1 [17] it was 65 nM. The Ratio IC50 in the data set listed under Homo sapiens [2] and in the data set filed under Homo sapiens [3] was below 10 throughout. The “inhibition (INH)” value in [11] is “Active”.

For the compound `COc1ccc(/C=C/C(=O)c2ccncc2)c(OC)c1OC`, the IC50 at Cytochrome P450 2C9 [1] was above 10000 nM; on Cytochrome P450 1A2 [4], 200 nM; on Cytochrome P450 2D6 [5], above 10000 nM; on Cytochrome P450 1B1 [6] it was 22 nM; at Cytochrome P450 2C19 [7], above 20000 nM; against Cytochrome P450 2D6 [8] it was 11000 nM. In addition, the half-inhibitory concentration (IC50) against Cytochrome P450 1A1 [9] was 1410 nM; on Cytochrome P450 2C19 [10], above 10000 nM; against Cytochrome P450 2C9 [12], above 20000 nM; at Cytochrome P450 3A4 [13] it was above 20000 nM; against Cytochrome P450 1B1 [14], 32 nM; on Cytochrome P450 3A4 [15], above 10000 nM. Also, the half-maximal inhibitory concentration (IC50) on Cytochrome P450 1A2 [16] stood at 104 nM; at Cytochrome P450 1A1 [17], 1330 nM. In addition, the “inhibition (INH)” value in data set [11] is given as “Active”.

As for `O=c1cc(-c2ccccc2)oc2c1ccc1ccccc12` [ALPHA-NAPHTHOFLAVONE], the “inhibition (INH)” value on Cytochrome P450 1B1 [18] and on Cytochrome P450 1A1 [19] was “Active” each time.

The record behind these values is ChEMBL document CHEMBL4177690, “(E)-3-(3,4,5-Trimethoxyphenyl)-1-(pyridin-4-yl)prop-2-en-1-one, a heterocyclic chalcone is a potent and selective CYP1A1 inhibitor and cancer chemopreventive agent” (Bioorg Med Chem Lett, 2017).
